The source made the active and inactive calls. No cut-off for these calls is given here.
Assays:
SK-OV-3 [1] = assay: Induction of apoptosis in human SK-OV-3 cells assessed as viable cells at 1 uM incubated for 48 hrs by Annexin V-FITC/PI staining based flow cytometry (reference value: 90.97 %); assay type: functional; conditions: read-out: Activity
KG-1 [2] = assay: Antiproliferative activity against human KG-1 cells assessed as inhibition of cell growth incubated for 72 hrs by MTT assay; assay type: functional, cell-based; conditions: KG-1, 72 h
[3] = molecular target: Signal transducer and activator of transcription 3 (Homo sapiens) (UniProt P40763); assay: Inhibition of STAT3 phosphorylation in human THP-1 cells at 0.5 to 2.5 uM incubated for 48 hrs by Western blot analysis; assay type: cell-based; conditions: dose 0.5-2.5 µM
U-937 = assay: Antiproliferative activity against human U-937 cells assessed as inhibition of cell growth incubated for 72 hrs by MTT assay; assay type: functional, cell-based; conditions: U-937, 72 h
SK-OV-3 [4] = assay: Induction of apoptosis in human SK-OV-3 cells assessed as necrotic cells at 1 uM incubated for 48 hrs by Annexin V-FITC/PI staining based flow cytometry (reference value: 4.45 %); assay type: functional
SK-OV-3 [5] = assay: Induction of apoptosis in human SK-OV-3 cells assessed as viable cells at 5 uM incubated for 48 hrs by Annexin V-FITC/PI staining based flow cytometry (reference value: 90.97 %); assay type: functional; conditions: read-out: Activity
THP-1 [6] = assay: Induction of apoptosis in human THP-1 cells assessed as early apoptotic cells at 2.5 uM incubated for 48 hrs by Annexin V-FITC/PI staining based flow cytometry (reference value: 0.45 %); assay type: functional
SK-OV-3 [7] = assay: Induction of apoptosis in human SK-OV-3 cells assessed as early apoptotic cells at 2.5 uM incubated for 48 hrs by Annexin V-FITC/PI staining based flow cytometry (reference value: 0.08 %); assay type: functional
THP-1 [8] = assay: Antiproliferative activity against human THP-1 cells assessed as inhibition of cell growth incubated for 72 hrs by MTT assay; assay type: functional, cell-based; conditions: THP-1, 72 h
THP-1 [9] = assay: Induction of apoptosis in human THP-1 cells assessed as late apoptotic cells at 0.5 uM incubated for 48 hrs by Annexin V-FITC/PI staining based flow cytometry (reference value: 0.74 %); assay type: functional
SK-OV-3 [10] = assay: Induction of apoptosis in human SK-OV-3 cells assessed as late apoptotic cells at 5 uM incubated for 48 hrs by Annexin V-FITC/PI staining based flow cytometry (reference value: 4.51 %); assay type: functional
THP-1 [11] = assay: Induction of apoptosis in human THP-1 cells assessed as early apoptotic cells at 0.5 uM incubated for 48 hrs by Annexin V-FITC/PI staining based flow cytometry (reference value: 0.45 %); assay type: functional
SK-OV-3 [12] = assay: Induction of apoptosis in human SK-OV-3 cells assessed as necrotic cells at 2.5 uM incubated for 48 hrs by Annexin V-FITC/PI staining based flow cytometry (reference value: 4.45 %); assay type: functional
[13] = molecular target: Signal transducer and activator of transcription 3 (Homo sapiens) (UniProt P40763); assay: Inhibition of STAT3 phosphorylation in human KG-1 cells at 0.5 to 2.5 uM incubated for 48 hrs by Western blot analysis; assay type: cell-based; conditions: dose 0.5-2.5 µM
SK-OV-3 [14] = assay: Downregulation of XIAP expression in human SK-OV-3 cells incubated for 48 hrs by Western blot analysis; assay type: functional, cell-based
SK-OV-3 [15] = assay: Induction of apoptosis in human SK-OV-3 cells assessed as change in mitochondrial membrane potential at 2.5 uM incubated for 48 hrs by JC-1 staining based flow cytometry (reference value: 5.34 %); assay type: functional
[16] = Antiproliferative activity against human SK-OV-3/Taxol cells assessed as inhibition of cell growth incubated for 72 hrs by MTT assay; assay type: functional, cell-based; conditions: SK-OV-3, 72 h
THP-1 [17] = assay: Induction of apoptosis in human THP-1 cells assessed as viable cells at 0.5 uM incubated for 48 hrs by Annexin V-FITC/PI staining based flow cytometry (reference value: 96.33 %); assay type: functional; conditions: read-out: Activity
THP-1 [18] = assay: Induction of apoptosis in human THP-1 cells assessed as necrotic cells at 2.5 uM incubated for 48 hrs by Annexin V-FITC/PI staining based flow cytometry (reference value: 2.48 %); assay type: functional
THP-1 [19] = assay: Induction of apoptosis in human THP-1 cells assessed as change in mitochondrial membrane potential at 2.5 uM incubated for 48 hrs by JC-1 staining based flow cytometry (reference value: 5.15 %); assay type: functional
THP-1 [20] = assay: Induction of apoptosis in human THP-1 cells assessed as viable cells at 1 uM incubated for 48 hrs by Annexin V-FITC/PI staining based flow cytometry (reference value: 96.33 %); assay type: functional; conditions: read-out: Activity
THP-1 [21] = assay: Induction of apoptosis in human THP-1 cells assessed as viable cells at 2.5 uM incubated for 48 hrs by Annexin V-FITC/PI staining based flow cytometry (reference value: 96.33 %); assay type: functional; conditions: read-out: Activity
THP-1 [22] = assay: Induction of apoptosis in human THP-1 cells assessed as early apoptotic cells at 1 uM incubated for 48 hrs by Annexin V-FITC/PI staining based flow cytometry (reference value: 0.45 %); assay type: functional
THP-1 [23] = assay: Induction of apoptosis in human THP-1 cells assessed as necrotic cells at 0.5 uM incubated for 48 hrs by Annexin V-FITC/PI staining based flow cytometry (reference value: 2.48 %); assay type: functional
SK-OV-3 [24] = assay: Antiproliferative activity against human SK-OV-3 cells assessed as inhibition of cell growth incubated for 72 hrs by MTT assay; assay type: functional, cell-based; conditions: SK-OV-3, 72 h
THP-1 [25] = assay: Induction of apoptosis in human THP-1 cells assessed as necrotic cells at 1 uM incubated for 48 hrs by Annexin V-FITC/PI staining based flow cytometry (reference value: 2.48 %); assay type: functional
SK-OV-3 [26] = assay: Induction of apoptosis in human SK-OV-3 cells assessed as necrotic cells at 5 uM incubated for 48 hrs by Annexin V-FITC/PI staining based flow cytometry (reference value: 4.45 %); assay type: functional
THP-1 [27] = assay: Induction of apoptosis in human THP-1 cells assessed as late apoptotic cells at 2.5 uM incubated for 48 hrs by Annexin V-FITC/PI staining based flow cytometry (reference value: 0.74 %); assay type: functional
THP-1 [28] = assay: Induction of apoptosis in human THP-1 cells assessed as late apoptotic cells at 1 uM incubated for 48 hrs by Annexin V-FITC/PI staining based flow cytometry (reference value: 0.74 %); assay type: functional
SK-OV-3 [29] = assay: Induction of apoptosis in human SK-OV-3 cells assessed as viable cells at 2.5 uM incubated for 48 hrs by Annexin V-FITC/PI staining based flow cytometry (reference value: 90.97 %); assay type: functional; conditions: read-out: Activity
SK-OV-3 [30] = assay: Induction of apoptosis in human SK-OV-3 cells assessed as early apoptotic cells at 5 uM incubated for 48 hrs by Annexin V-FITC/PI staining based flow cytometry (reference value: 0.08 %); assay type: functional
SK-OV-3 [31] = assay: Induction of apoptosis in human SK-OV-3 cells assessed as change in mitochondrial membrane potential at 1 uM incubated for 48 hrs by JC-1 staining based flow cytometry (reference value: 5.34 %); assay type: functional
KG-1 [32] = assay: Downregulation of XIAP expression in human KG-1 cells incubated for 48 hrs by Western blot analysis; assay type: functional, cell-based; conditions: dose 0.5-2.5 µM
SK-OV-3 [33] = assay: Induction of apoptosis in human SK-OV-3 cells assessed as late apoptotic cells at 1 uM incubated for 48 hrs by Annexin V-FITC/PI staining based flow cytometry (reference value: 4.51 %); assay type: functional
THP-1 [34] = assay: Induction of apoptosis in human THP-1 cells assessed as change in mitochondrial membrane potential at 0.5 uM incubated for 48 hrs by JC-1 staining based flow cytometry (reference value: 5.15 %); assay type: functional

Chain of Signal transducer and activator of transcription 3 (Homo sapiens) (P40763 whole entry): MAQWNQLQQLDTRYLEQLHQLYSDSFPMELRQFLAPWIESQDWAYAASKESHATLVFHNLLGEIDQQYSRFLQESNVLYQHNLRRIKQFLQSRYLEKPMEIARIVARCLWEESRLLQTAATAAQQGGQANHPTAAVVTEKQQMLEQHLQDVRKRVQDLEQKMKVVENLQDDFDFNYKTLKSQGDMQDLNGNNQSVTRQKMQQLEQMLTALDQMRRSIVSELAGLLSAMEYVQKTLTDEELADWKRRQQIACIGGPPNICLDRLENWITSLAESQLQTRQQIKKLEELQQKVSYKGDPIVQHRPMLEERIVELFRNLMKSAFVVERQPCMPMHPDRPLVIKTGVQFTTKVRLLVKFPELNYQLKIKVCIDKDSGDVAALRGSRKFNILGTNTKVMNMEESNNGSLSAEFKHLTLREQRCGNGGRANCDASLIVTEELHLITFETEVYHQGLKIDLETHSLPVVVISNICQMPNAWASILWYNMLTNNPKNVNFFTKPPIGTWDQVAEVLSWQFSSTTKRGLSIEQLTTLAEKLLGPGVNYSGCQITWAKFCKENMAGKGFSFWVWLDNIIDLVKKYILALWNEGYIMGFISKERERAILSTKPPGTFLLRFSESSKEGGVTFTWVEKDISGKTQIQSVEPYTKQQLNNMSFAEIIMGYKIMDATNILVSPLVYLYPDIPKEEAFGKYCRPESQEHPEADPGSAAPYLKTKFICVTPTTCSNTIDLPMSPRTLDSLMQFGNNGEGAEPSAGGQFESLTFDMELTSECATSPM

| Compound | viability at 1 µM (SK-OV-3 [1]) [%] | IC50 (KG-1 [2]) [µM] | inhibition [3] | IC50 (U-937) [µM] | Activity (SK-OV-3 [4]) [%] | viability at 5 µM (SK-OV-3 [5]) [%] | Activity (THP-1 [6]) [%] | Activity (SK-OV-3 [7]) [%] | IC50 (THP-1 [8]) [µM] | Activity (THP-1 [9]) [%] | Activity (SK-OV-3 [10]) [%] | Activity (THP-1 [11]) [%] | Activity (SK-OV-3 [12]) [%] | inhibition [13] | Activity (SK-OV-3 [14]) | Activity (SK-OV-3 [15]) [%] | IC50 [16] [µM] | viability at 0.5 µM (THP-1 [17]) [%] | Activity (THP-1 [18]) [%] | Activity (THP-1 [19]) [%] | other results |
| --- | --- | --- | --- | --- | --- | --- | --- | --- | --- | --- | --- | --- | --- | --- | --- | --- | --- | --- | --- | --- | --- |
| Cc1nccnc1C(=O)/C=C/c1cccc(C#N)c1 | 72.4 | 1.79 | Active | 1.73 | 5.49 | 22.5 | 15.05 | 0.77 | 1.52 | 1.46 | 65.66 | 3.41 | 9.29 | Active | Dose-dependent-effect | 18.87 | 1.42 | 93.3 | 2.27 | 29.42 | viability at 1 µM (THP-1 [20]): 92.7%; viability at 2.5 µM (THP-1 [21]): 77.8%; Activity (THP-1 [22]): 3.12%; Activity (THP-1 [23]): 1.78%; IC50 (SK-OV-3 [24]): 1.39 µM; Activity (THP-1 [25]): 2.24%; Activity (SK-OV-3 [26]): 9.68%; Activity (THP-1 [27]): 4.82%; Activity (THP-1 [28]): 1.94%; viability at 2.5 µM (SK-OV-3 [29]): 63.3%; Activity (SK-OV-3 [30]): 2.19%; Activity (SK-OV-3 [31]): 13.1%; Activity (KG-1 [32]): Dose-dependent-effect; Activity (SK-OV-3 [33]): 21.04%; Activity (THP-1 [34]): 6.42% |
| CCc1nccnc1C(=O)/C=C/c1ccccn1 | 71.2 | 0.63 | Active | 0.69 | 8.98 | 44.6 | 13.09 | 0.41 | 0.6 | 1.53 | 45.06 | 2.51 | 9.16 | Active | Dose-dependent-effect | 17.88 | 1.24 | 93.5 | 1.77 | 26.66 | viability at 1 µM (THP-1 [20]): 91.6%; viability at 2.5 µM (THP-1 [21]): 81.9%; Activity (THP-1 [22]): 4.75%; Activity (THP-1 [23]): 2.41%; IC50 (SK-OV-3 [24]): 1.31 µM; Activity (THP-1 [25]): 1.94%; Activity (SK-OV-3 [26]): 8.84%; Activity (THP-1 [27]): 3.26%; Activity (THP-1 [28]): 1.73%; viability at 2.5 µM (SK-OV-3 [29]): 67%; Activity (SK-OV-3 [30]): 1.46%; Activity (SK-OV-3 [31]): 11.51%; Activity (KG-1 [32]): Dose-dependent-effect; Activity (SK-OV-3 [33]): 19.41%; Activity (THP-1 [34]): 6.52% |

— ChEMBL document CHEMBL6114992, “Design, synthesis, biological evaluation, and mechanism of action of new pyrazines as anticancer agents in vitro and in vivo” (Bioorg Med Chem, 2025)
